This note sets out measurements from patent US8658647B2, “Integrin-linked kinase inhibitors” (The Ohio State University Research Foundation, priority 2010, dated 2014).

For series [1], the system named is prostate (PC-3, LNCaP) and breast cancer (MDA-MB-468, MDA-MB-231, CAL51, MCF-7, SKBR3) cell lines vs nonmalignant prostate (PrEC) and mammary epithelial cells …. Kind of series: MTT cell viability in panel of prostate and breast cancer cell lines vs nonmalignant epithelial cells. In kind it is cell-based, human. The conditions noted are these: 12, 24 or 48 h. The procedure:
Time- and/or dose-dependent effects of compound 2 on cell viability in (A) prostate cancer (PC-3, LNCaP) and nonmalignant prostate epithelial cells (PrEC), and (B) breast cancer (MDA-MB-468, MDA-MB-231, CAL51, MCF-7, SKBR3) and nonmalignant mammary epithelial cells (MEC) were determined. Cells were treated for 12, 24 or 48 h at the indicated concentrations and cell viability determined by MTT assays. Points, mean; bars, ±SD.
As structurally related compounds 2 and 3 differ only in that the N-alkyl moiety, i.e., methyl versus ethyl, compound 2 was selected for more thorough evaluation. Dose- and time-dependent effects of compound 2 on cell viability were determined in a panel of two prostate (PC-3, LNCaP) and five breast cancer (MDA-MB-468, MDA-MB-231, CAL51, MCF-7, SKBR3) cell lines (FIGS. 3A and B). Moreover, cancer cell lines were also evaluated in parallel with nonmalignant prostate and mammary epithelial cells (FIG. 3A, lower panel; 3B lower right panel).

The subject of series [2] is downstream targets of ILK (Akt-S473; GSK3β-S9). Kind of series: Western blot of downstream targets of ILK, dose-dependent (FIG. 4). In kind it is cell-based, human. The conditions noted are these: PC-3 and MDA-MB-468 cells, 24 h, 5% FBS. Here is the method: FIG. 4 provides evidence that Compound 2 suppresses the ILK signaling pathway. Western blot analysis of the dose-dependent effect of Compound 2 on downstream targets of ILK (Akt-S473; GSK3β-S9) in PC-3 and […] cells. Cells were treated for 24 h at the indicated concentrations in the presence of 5% FBS.
Based on western blot data showing the selective reduction in phospho-Akt-S473 levels relative to those of phospho-Akt-T308 (FIG. 2A), compound 2 was identified as an inhibitor of PDK2 activity. To evaluate compound 2 for the ability to inhibit ILK signaling, its effect on downstream targets of ILK was assessed in PC-3 and MDA-MB-468 cells by Western blotting (FIG. 4).

The test system of series [3] is PC-3 human prostate cancer cells. Kind of series: MTT cell viability assay in PC-3 cells. Format: cell-based. The conditions noted are these: 24 h, 5% FBS; for IC50: Homo sapiens, read-out: IC50, antiproliferative activity. Here is the method:
(§1) FIG. 2 provides (A) Western blot analysis of the effects of compounds 1-9 on Akt phosphorylation at the PDK1 (T308) and PDK2 (S473) sites in PC-3 human prostate cancer cells after 24 h treatment at 2.5 μM in the presence of 5% fetal bovine serum (FBS), and (B) Dose-dependent effects of compounds 1-9 on the viability of PC-3 cells treated as described above in A. Cell viability was assessed by MTT assay. Points, mean; bars, ±SD.
(§2) FIG. 5 provides the results from the screening of compounds 10-13. (A) Dose-dependent effects of compounds 10-13 and 2 on the viability of PC-3 cells after 24 h treatment […] in the presence of 5% FBS. Cell viability was assessed by MTT assay. Points, mean; bars, ±SD. (B) Western blot analysis of the effects of compounds 2 and 13 on the phosphorylation status of downstream targets of ILK in PC-3 cells.
(§3) In another series of tests, Compounds 10-13 were screened for antiproliferative activity, in parallel with compound 2, by MTT assay in PC-3 human prostate cancer cells. […] The effects of compound 13, vs. compound 2, on the phosphorylation status of downstream targets of ILK in PC-3 cells were evaluated by western blotting.
For orientation: Tetrazolium dyes change colour on reduction, which living cells bring about.

The next series concerns PC-3 tumor xenografts. Kind of series: PC-3 prostate tumor xenograft model, oral dosing. The conditions noted are these: 35 days. Format: in vivo. Here is the method:
PC-3 tumors were established in male athymic nude mice by subcutaneous injection of 5×10^5 PC-3 cells in a total volume of 0.1 ml serum-free medium containing 50% Matrigel. Mice with established tumors were randomized to three groups receiving the indicated treatments once daily by gavage for 35 days. Tumor sizes and body weights were measured weekly. Points, mean tumor volume; bars, ±SD.
The In vivo tumor suppressive activity of compound 2 in the PC-3 prostate tumor xenograft model was also evaluated. Based on the results described above, compound 2 was identified as the lead agent for development as a novel ILK/PDK2 inhibitor. To evaluate the in vivo antitumor activity of compound 2, athymic nude mice bearing established subcutaneous PC-3 tumor xenografts (mean starting tumor volume, 157.1±29.1 mm^3) were treated orally for 35 days with compound 2 at 25 or 50 mg/kg once daily or with vehicle (0.5% methylcellulose and 0.1% Tween 80 in sterile water) (n=5 mice). […] The in vivo efficacy of compound 2 after oral administration indicates its oral bioavailability.

Series [4] concerns Akt phosphorylation at the PDK2 site [S473] versus the PDK1 site [T308]. Kind of series: Western blot of Akt phosphorylation at PDK2 (S473) vs PDK1 (T308) sites in PC-3 cells. Format: cell-based, human. Conditions: 24 h, 2.5 μM, 5% FBS. Here is the method: as §1
The test system of series [5] is SKBR3 human breast cancer cells. Kind of series: MTT cell viability assay in SKBR3 cells. Format: cell-based. Conditions: SK-BR-3, 24 h, 5% FBS, read-out: IC50, antiproliferative activity. Here is the method:
(§4) Dose-dependent effects of compounds 4-9 in MCF-7 (upper panel) and SKBR3 (lower) cells after 24 h treatment in the presence of 5% FBS. Cell viability was assessed by MTT assay. Points, mean; bars, ±SD.
(§5) Compounds 4-9, which were screened previously in a prostate cancer cell line (FIG. 2), were evaluated for antiproliferative activity in MCF-7 and SKBR3 human breast cancer cells.

Series [6] concerns MCF-7 human breast cancer cells. Kind of series: MTT cell viability assay in MCF-7 cells. Format: cell-based. Conditions: MCF7, 24 h, 5% FBS, read-out: IC50, antiproliferative activity. The procedure:
as §4, §5

The subject of series [7] is downstream targets of ILK. Kind of series: Western blot of phosphorylation status of downstream targets of ILK in PC-3 cells (FIG. 5B). In kind it is cell-based, human. The procedure: as §2, §3
(In western blotting, separated proteins are transferred to a membrane and probed.)

In general, IC50 refers to the concentration that gives 50% inhibition.

For `CNC(=O)CCc1cc(-c2ccc(-c3ccc(C(F)(F)F)cc3)cc2)n(-c2ccc(N3CCNCC3)cc2)n1` [Compound 2, N-methyl-3-(1-(4-(piperazin-1-yl)phenyl)-5-(4′-(trifluoromethyl)-[1,1′-biphenyl]-4-yl)-1H-pyrazol-3-yl)propanamide], the “selectivity of cytotoxicity, cancer cells versus nonmalignant cells” value in series [1] was “selective cytotoxicity for cancer cells versus their nonmalignant counterparts”. In series [2], the phospho-S473-Akt levels entry was “marked and selective decrease”; the “phosphorylation of GSK3β” value is reported as “reduced the phosphorylation”. The “antiproliferative activity, relative potency among compounds 1-9” value in series [3] was “most potent among the nine compounds”. In the series with PC-3 tumor xenografts (25 mg/kg once daily oral, P=0.10), the “inhibition of PC-3 tumor growth relative to vehicle-treated controls” value is listed as 42%. Further, the “inhibition of PC-3 tumor growth relative to vehicle-treated controls” value in the series on PC-3 tumor xenografts (50 mg/kg once daily oral, P=0.03) was 56%. Moreover, in the series with PC-3 tumor xenografts (25 or 50 mg/kg once daily oral), the “changes in body weight” value is “nor significant changes in body weight” and the “tolerability, signs of toxicity” value is listed as “no overt signs of toxicity”. For the same molecule, the “selective inhibition of Akt-S473 phosphorylation (PDK2 inhibitory activity)” value in series [4] was “marked selective inhibition of Akt-S473 phosphorylation”.

Turning to `CCNC(=O)CCc1cc(-c2ccc(-c3ccc(C(F)(F)F)cc3)cc2)n(-c2ccc(N3CCNCC3)cc2)n1` [Compound 3, N-ethyl-3-(1-(4-(piperazin-1-yl)phenyl)-5-(4′-(trifluoromethyl)-[1,1′-biphenyl]-4-yl)-1H-pyrazol-3-yl)propanamide], the “antiproliferative activity, relative potency among compounds 1-9” value in series [3] is reported as “most potent among the nine compounds”. In addition, the “selective inhibition of Akt-S473 phosphorylation (PDK2 inhibitory activity)” value in series [4] is listed as “marked selective inhibition of Akt-S473 phosphorylation”.

On to `CCNC(=O)c1cc(-c2ccc(-c3ccc(C(F)(F)F)cc3)cc2)n(-c2ccc(NC(=O)CCN)cc2)n1` [Compound 5, 1-(4-(3-aminopropanamido)phenyl)-N-ethyl-5-(4′-(trifluoromethyl)-[1,1′-biphenyl]-4-yl)-1H-pyrazole-3-carboxamide], for which the IC50 in series [5] and in series [6] was 4 to 5 µM in each case.

In the case of `CNC(=O)CCc1cc(-c2ccc(-c3ccc(C)cc3)cc2)n(-c2ccc(N3CCNCC3)cc2)n1` [Compound 11, N-methyl-3-(5-(4′-methyl-[1,1′-biphenyl]-4-yl)-1-(4-(piperazin-1-yl)phenyl)-1H-pyrazol-3-yl)propanamide], the concentration for half-maximal inhibition (IC50) in series [3] is 2 to 3 µM.

Turning to `CNC(=O)CCc1cc(-c2ccc3c(ccc4ccccc43)c2)n(-c2ccc(N3CCNCC3)cc2)n1` [Compound 13, N-methyl-3-(5-(phenanthren-2-yl)-1-(4-(piperazin-1-yl)phenyl)-1H-pyrazol-3-yl)propanamide], in series [7], the “phospho-Akt-S473 relative to phospho-Akt-T308” value was “strong reduction” and the “suppressive activity against GSK3β phosphorylation” value is given as “did not exhibit substantial suppressive activity”. The IC50 in series [3] is 2 to 3 µM.
